Read-outs that look alike come from different tables or passages of the source.
Experiments:
[1] = tested on: Ovalbumin (OVA) induced lung eosinophilia; assay: Rat model of ovalbumin (OVA) induced lung eosinophilia (WET administration, saline suspension i.t.); format: in vivo, Brown Norway rats
[2] = tested on: PI3Kδ-AKT pathway endogenously expressed on THP-1 cells; assay: PI3Kδ enzyme inhibitory activity in the THP-1 assay (M-CSF stimulated pAKT, HTRF); format: cell-based; details: for IC50: Homo sapiens, THP-1 cells, M-CSF 2.5 ng/mL, pAKT Ser473, read-out: THP-1 IC50 nM Cellular; for Delta cell drop-off (Cellular/enzymatic activity = THP-1 IC50 nM/Delta Ki nM): ratio THP-1 IC50 / Delta Ki
PI3Kδ [3] = molecular target: T1, PI3Kδ (Homo sapiens, UniProt O00329); details: cell free assay; reproduced from WO2015091685; read-out: PI3K delta inhibition; cited from earlier work
T1 construct: purchased Millipore Ltd (Billerica, MA)
T1 sequence (O00329 whole entry): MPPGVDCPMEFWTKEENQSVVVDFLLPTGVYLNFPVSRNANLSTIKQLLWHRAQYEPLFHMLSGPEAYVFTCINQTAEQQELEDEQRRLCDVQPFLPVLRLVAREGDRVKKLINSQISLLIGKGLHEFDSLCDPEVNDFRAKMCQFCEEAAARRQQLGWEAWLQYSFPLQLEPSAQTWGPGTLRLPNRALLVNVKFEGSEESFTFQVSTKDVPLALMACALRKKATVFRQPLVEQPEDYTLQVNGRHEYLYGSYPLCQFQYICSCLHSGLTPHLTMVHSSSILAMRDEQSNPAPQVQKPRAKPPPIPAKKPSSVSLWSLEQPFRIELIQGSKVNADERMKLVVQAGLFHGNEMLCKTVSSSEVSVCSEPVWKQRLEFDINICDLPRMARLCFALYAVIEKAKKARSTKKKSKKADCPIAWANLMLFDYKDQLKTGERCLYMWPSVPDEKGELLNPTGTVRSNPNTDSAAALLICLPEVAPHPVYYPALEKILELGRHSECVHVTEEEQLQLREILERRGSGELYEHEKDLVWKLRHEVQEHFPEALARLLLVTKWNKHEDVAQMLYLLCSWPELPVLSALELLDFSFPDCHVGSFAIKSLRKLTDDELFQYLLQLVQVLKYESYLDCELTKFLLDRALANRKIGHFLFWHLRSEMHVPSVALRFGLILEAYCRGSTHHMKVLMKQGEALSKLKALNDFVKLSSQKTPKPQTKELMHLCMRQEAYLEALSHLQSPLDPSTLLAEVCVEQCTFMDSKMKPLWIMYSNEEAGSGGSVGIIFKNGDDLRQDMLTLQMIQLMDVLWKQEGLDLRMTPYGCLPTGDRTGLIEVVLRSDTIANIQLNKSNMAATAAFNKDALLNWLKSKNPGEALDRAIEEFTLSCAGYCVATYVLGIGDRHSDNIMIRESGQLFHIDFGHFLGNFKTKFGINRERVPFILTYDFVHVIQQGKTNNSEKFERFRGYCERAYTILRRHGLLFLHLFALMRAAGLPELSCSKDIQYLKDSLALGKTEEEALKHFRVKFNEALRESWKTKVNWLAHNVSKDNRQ
T1 sequence (P27986 whole entry partner): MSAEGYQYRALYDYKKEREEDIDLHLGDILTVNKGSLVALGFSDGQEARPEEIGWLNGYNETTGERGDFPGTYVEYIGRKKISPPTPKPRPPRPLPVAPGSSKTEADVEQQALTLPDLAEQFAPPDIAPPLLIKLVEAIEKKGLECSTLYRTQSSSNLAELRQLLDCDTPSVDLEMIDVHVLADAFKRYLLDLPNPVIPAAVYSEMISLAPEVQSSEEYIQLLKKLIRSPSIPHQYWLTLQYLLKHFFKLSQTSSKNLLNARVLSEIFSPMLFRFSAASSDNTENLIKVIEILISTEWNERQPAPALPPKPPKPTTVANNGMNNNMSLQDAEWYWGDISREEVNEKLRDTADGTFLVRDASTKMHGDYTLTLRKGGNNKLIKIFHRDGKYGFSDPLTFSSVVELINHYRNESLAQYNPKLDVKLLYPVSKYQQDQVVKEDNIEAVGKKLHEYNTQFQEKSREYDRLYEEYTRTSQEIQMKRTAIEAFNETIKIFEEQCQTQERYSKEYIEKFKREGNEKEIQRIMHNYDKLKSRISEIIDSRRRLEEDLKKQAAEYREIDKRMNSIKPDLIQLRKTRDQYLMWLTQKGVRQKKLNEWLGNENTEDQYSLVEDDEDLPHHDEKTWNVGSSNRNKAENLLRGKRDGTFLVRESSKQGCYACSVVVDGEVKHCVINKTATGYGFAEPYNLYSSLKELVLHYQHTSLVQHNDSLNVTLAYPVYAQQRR

PI3Kα = molecular target: T2, PI3Kα (Homo sapiens, UniProt P42336); details: cell free assay; reproduced from WO2015091685; read-out: PI3K alpha inhibition; cited from earlier work
T2 construct: purchased Millipore Ltd (Billerica, MA)
T2 sequence (P42336 whole entry): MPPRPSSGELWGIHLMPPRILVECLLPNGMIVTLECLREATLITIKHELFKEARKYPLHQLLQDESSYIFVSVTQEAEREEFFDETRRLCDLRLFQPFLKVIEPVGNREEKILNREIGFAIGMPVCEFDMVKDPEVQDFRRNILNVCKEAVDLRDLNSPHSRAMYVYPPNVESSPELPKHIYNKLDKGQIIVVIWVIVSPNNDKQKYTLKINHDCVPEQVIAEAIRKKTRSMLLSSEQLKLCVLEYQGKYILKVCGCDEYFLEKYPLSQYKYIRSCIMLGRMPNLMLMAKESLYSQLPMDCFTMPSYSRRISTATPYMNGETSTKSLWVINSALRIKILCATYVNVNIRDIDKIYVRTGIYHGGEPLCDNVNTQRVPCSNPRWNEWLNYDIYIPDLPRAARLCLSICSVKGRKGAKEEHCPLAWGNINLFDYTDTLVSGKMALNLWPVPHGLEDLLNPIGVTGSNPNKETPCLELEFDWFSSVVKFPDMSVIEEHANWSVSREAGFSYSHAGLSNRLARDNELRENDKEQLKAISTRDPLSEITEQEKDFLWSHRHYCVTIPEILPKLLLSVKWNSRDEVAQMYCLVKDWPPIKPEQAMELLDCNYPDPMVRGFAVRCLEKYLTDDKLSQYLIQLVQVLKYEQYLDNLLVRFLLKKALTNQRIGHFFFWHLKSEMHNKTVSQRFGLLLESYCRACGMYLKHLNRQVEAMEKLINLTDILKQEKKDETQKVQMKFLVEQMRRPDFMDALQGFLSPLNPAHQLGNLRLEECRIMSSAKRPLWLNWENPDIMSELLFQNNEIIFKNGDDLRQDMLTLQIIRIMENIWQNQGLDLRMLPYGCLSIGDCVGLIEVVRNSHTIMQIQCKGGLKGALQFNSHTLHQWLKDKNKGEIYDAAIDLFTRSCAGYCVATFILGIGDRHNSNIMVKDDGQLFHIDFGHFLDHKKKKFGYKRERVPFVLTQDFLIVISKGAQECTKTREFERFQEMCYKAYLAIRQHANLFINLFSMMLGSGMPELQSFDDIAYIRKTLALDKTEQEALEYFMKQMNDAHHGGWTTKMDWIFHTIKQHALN

PI3Kβ = molecular target: T3, PI3Kβ (Homo sapiens, UniProt P42338); details: cell free assay; reproduced from WO2015091685; read-out: PI3K beta inhibition; cited from earlier work
T3 construct: purchased Millipore Ltd (Billerica, MA)
T3 sequence (P42338 whole entry): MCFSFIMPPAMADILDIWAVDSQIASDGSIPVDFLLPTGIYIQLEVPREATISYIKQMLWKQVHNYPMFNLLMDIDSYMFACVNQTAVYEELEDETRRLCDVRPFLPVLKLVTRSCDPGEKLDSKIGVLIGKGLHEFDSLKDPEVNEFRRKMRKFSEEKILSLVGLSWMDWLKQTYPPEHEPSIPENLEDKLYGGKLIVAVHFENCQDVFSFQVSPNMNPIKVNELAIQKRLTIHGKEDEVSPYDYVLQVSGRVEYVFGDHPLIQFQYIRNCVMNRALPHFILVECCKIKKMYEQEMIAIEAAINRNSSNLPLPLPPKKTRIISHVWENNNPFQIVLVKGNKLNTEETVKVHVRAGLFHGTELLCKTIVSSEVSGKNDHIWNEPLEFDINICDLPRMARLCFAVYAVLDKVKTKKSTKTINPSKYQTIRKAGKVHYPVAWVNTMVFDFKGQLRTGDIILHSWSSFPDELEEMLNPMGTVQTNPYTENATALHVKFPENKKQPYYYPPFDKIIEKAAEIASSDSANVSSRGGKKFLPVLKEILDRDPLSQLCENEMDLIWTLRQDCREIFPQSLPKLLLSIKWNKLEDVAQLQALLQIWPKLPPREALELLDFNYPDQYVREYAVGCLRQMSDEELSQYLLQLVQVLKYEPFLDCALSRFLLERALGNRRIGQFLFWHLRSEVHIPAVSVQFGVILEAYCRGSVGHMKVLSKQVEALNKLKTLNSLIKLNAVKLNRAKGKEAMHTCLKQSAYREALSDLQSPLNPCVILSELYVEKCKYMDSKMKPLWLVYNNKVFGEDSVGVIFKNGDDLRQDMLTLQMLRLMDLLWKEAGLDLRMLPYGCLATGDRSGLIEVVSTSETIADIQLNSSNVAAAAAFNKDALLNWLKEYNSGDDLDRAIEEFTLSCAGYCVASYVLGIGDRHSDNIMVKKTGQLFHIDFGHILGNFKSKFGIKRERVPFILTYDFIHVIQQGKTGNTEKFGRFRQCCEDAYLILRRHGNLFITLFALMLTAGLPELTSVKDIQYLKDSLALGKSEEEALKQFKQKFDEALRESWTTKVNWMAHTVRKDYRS

PI3Kγ = molecular target: T4, PI3Kγ (Homo sapiens, UniProt P48736); details: cell free assay; reproduced from WO2015091685; read-out: PI3K gamma inhibition; cited from earlier work
T4 construct: purchased Millipore Ltd (Billerica, MA)
T4 sequence (P48736 whole entry): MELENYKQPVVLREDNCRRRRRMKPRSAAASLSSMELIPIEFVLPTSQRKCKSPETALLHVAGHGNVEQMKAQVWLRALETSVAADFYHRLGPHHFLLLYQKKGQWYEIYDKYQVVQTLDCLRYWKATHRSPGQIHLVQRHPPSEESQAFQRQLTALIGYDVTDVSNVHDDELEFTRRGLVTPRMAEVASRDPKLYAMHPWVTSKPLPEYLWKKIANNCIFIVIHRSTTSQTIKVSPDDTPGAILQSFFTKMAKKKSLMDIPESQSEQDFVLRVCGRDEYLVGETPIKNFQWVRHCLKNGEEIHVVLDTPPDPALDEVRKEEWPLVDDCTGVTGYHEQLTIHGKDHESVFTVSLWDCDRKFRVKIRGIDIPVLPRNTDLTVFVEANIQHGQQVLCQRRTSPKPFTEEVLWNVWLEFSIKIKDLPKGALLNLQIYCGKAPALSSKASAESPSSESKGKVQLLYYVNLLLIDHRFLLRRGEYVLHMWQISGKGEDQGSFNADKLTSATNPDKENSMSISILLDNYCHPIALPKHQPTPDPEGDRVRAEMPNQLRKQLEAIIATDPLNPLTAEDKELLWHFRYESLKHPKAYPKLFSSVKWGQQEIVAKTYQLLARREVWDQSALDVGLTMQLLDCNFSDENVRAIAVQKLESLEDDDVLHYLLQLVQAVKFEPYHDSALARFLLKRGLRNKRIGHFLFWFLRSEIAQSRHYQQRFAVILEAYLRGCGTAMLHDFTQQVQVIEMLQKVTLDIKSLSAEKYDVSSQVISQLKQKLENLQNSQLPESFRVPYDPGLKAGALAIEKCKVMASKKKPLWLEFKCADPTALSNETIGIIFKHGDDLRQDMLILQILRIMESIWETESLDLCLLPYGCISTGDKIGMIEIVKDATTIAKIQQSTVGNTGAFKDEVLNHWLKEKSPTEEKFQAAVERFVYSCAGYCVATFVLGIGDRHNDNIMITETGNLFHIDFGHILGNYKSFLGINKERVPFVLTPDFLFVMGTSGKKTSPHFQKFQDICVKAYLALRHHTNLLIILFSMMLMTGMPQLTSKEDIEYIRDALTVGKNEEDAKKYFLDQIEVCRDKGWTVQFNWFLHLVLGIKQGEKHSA

PI3Kδ [4] = molecular target: T1, PI3Kδ; assay: PI3K enzyme inhibitory activity in the cell free assay (ADP-Glo Kinase Assay); format: biochemical; details: cell free enzymatic assay; for IC50: ATP 80 μM, read-out: Enzymatic Delta IC50; for Ki: read-out: Enzymatic Delta Ki
Lung retention = details: reason why not tested in OVA model
[5] = administered 12 h before OVA challenge, 0.1 μmol/kg (ED80) for compounds of the invention

Compound	IC50 [2] [nM]	Delta cell drop-off (Cellular/enzymatic activity = THP-1 IC50 nM/Delta Ki nM) [2]	IC50 (PI3Kδ [4]) [nM]	Ki (PI3Kδ [4]) [nM]	also measured
CC(c1oc(=O)c2ccccc2c1-c1cccc(CN(C)C)c1)n1nc(-c2cc(O)cc(F)c2)c2c(N)ncnc21 (single isomer, unassigned) [Comparative example 3, reference compound]	1.5	–	–	–	% of inhibition (eosinophil recruitment in BALF) ([1]; administered 2 h before OVA challenge, ns = non-significant): 34% ns***
CC(c1oc(=O)c2ccccc2c1-c1cccc(CN2CCN(C)CC2)c1)n1nc(-c2cc(O)cc(F)c2)c2c(N)ncnc21 (racemic) [Example 142, 3-(1-(4-amino-3-(3-fluoro-5-hydroxyphenyl)-1H-pyrazolo[3,4-d]pyrimidin-1-yl)ethyl)-4-(3-((4-methylpiperazin-1-yl)methyl)phenyl)-1H-isochromen-1-one]	–	–	–	–	IC50 (PI3Kδ [3]): < 10 nM; IC50 (PI3Kα): > 1000 nM; IC50 (PI3Kβ): > 1000 nM; IC50 (PI3Kγ): > 1000 nM
CC(c1cccc(-c2c(C(C)n3nc(-c4cncc(O)c4)c4c(N)ncnc43)oc(=O)c3ccccc23)c1)N(C)C (stereo not drawn) [Example 7, 3-(1-(4-Amino-3-(5-hydroxypyridin-3-yl)-1H-pyrazolo[3,4-d]pyrimidin-1-yl)ethyl)-4-(3-(1-(dimethylamino)ethyl)phenyl)-1H-isochromen-1-one]	3.9	4.9	1.6	0.8	–
CC(c1oc(=O)c2ccccc2c1-c1ccccc1)n1nc(-c2cncc(O)c2)c2c(N)ncnc21 (single isomer, unassigned) [Comparative example 2, reference compound]	1.6	–	–	–	lung retention (Lung retention): Compound not even tested in OVA model for Insufficient lung retention****
CC(c1oc(=O)c2ccccc2c1-c1ccc(F)c(CN2CCN(C)CC2)c1)n1nc(-c2cncc(O)c2)c2c(N)ncnc21 (stereo not drawn) [Example 5, 3-{1-[4-Amino-3-(5-hydroxypyridin-3-yl)-1H-pyrazolo[3,4-d]pyrimidin-1-yl]ethyl}-4-{4-fluoro-3-[(4-methylpiperazin-1-yl)methyl]phenyl}-1H-isochromen-1-one]	1.8	3.6	1	0.5	–
CC(c1oc(=O)c2ccccc2c1-c1cc(F)cc(CN2CCN(C)CC2)c1)n1nc(-c2cncc(O)c2)c2c(N)ncnc21 (stereo not drawn) [Example 6, 3-(1-(4-Amino-3-(5-hydroxypyridin-3-yl)-1H-pyrazolo[3,4-d]pyrimidin-1-yl)ethyl)-4-(3-fluoro-5-((4-methylpiperazin-1-yl)methyl)phenyl)-1H-isochromen-1-one]	3	7.5	0.8	0.4	–
CC(c1oc(=O)c2ccccc2c1-c1cccc(CN2CCN(C)CC2)c1)n1nc(-c2cc(O)cc(F)c2)c2c(N)ncnc21 (single isomer, unassigned) [Comparative example 1, 3-(1-(4-amino-3-(3-fluoro-5-hydroxyphenyl)-1H-pyrazolo[3,4-d]pyrimidin-1-yl)ethyl)-4-(3-((4-methylpiperazin-1-yl)methyl)phenyl)-1H-isochromen-1-one, reference compound]	1.8	1.6	2.2	1.1	% of inhibition (eosinophil recruitment in BALF) [1, 5]: 0% (Not durable)
CC(c1oc(=O)c2ccccc2c1-c1ccc(Cl)c(CN(C)C)c1)n1nc(-c2cncc(O)c2)c2c(N)ncnc21 (stereo not drawn) [Example 3, 3-{1-[4-Amino-3-(5-hydroxypyridin-3-yl)-1H-pyrazolo[3,4-d]pyrimidin-1-yl]ethyl}-4-{4-chloro-3-[(dimethylamino)methyl]phenyl}-1H-isochromen-1-one]	3.9	9.7	0.7	0.4	–

Second part, led by results:

IC50 [2] [nM]	Delta cell drop-off (Cellular/enzymatic activity = THP-1 IC50 nM/Delta Ki nM) [2]	IC50 (PI3Kδ [4]) [nM]	Ki (PI3Kδ [4]) [nM]	Compound	also measured
0.6	1.2	–	–	CC(c1oc(=O)c2ccccc2c1-c1cccc(CN(C)C)c1)n1nc(-c2cncc(O)c2)c2c(N)ncnc21 (single isomer, unassigned) [Example 2a, 3-(1-(4-amino-3-(5-hydroxypyridin-3-yl)-1H-pyrazolo[3,4-d]pyrimidin-1-yl)ethyl)-4-(3-((dimethylamino)methyl)phenyl)-1H-isochromen-1-one]	% of inhibition (eosinophil recruitment in BALF) [1, 5]: 57%
2.8	3.1	–	–	CC(c1oc(=O)c2ccccc2c1-c1cccc(CN2CCN(C)CC2)c1)n1nc(-c2cncc(O)c2)c2c(N)ncnc21 (single isomer, unassigned) [Example 1a, 3-{1-[4-Amino-3-(5-hydroxypyridin-3-yl)-1H-pyrazolo[3,4-d]pyrimidin-1-yl]ethyl}-4-{3-[(4-methylpiperazin-1-yl)methyl]phenyl}-1H-isochromen-1-one]	% of inhibition (eosinophil recruitment in BALF) [1, 5]: 55%
1	10	0.3	0.1	CC(c1oc(=O)c2ccccc2c1-c1cccc([C@H]2CCCN2C)c1)n1nc(-c2cncc(O)c2)c2c(N)ncnc21 (single isomer, unassigned) [Example 4a]	–
